We go through one compound from US10973850B2, “Composition comprising tricalcium phosphate and gelatin for use in a method for the treatment of dyspepsia and related disorders” (S.B.M. S.R.L., priority 2015, dated 2021).

This assay can be described thus: Protective effect: time to perforation of a sheet of wheat starch exposed to concentrated HCl. Conditions: end point a clear-cut hole. Here is the method:
The barrier-like effect of gelatin was experimentally assessed. A Sheet of wheat starch was exposed to a concentrated solution of HCl. The protective action was measured as an extension of time to perforation in comparison to control. The end consisted of a clear-cut hole.
The new threshold matched the potentially dangerous HCl concentration in the stomach at the above-mentioned ration, corresponding to about 6 parts of gelatin to 1 part of TCP.

Each structure is given as a SMILES string.

On to `O=P([O-])([O-])[O-].O=P([O-])([O-])[O-].[Ca+2].[Ca+2].[Ca+2]` [TCP, tricalcium phosphate], for which the “protective action, extension of time to perforation in comparison to control” value is listed as “almost equally effective”.
